Assay results taken from patent US10617734B2, “STAT3 and ERK signal pathway inhibitor comprising mogrosides and analogs thereof” (BEIJING UNIVERSITY OF AGRICULTURE, priority 2014, dated 2020).

Assays:
[1] = tested on: phosphorylated ERK1/2 (P-ERK1/2); assay: Western Blotting of phosphorylated ERK1/2 in U937 cells; type: cell-based; settings: 10 μmol/L, 24 hours
Description: (§1) The inhibition of the STAT3 and ERK signal pathways achieved by Mogroside I E1, Mogroside II A2 and mogrol was detected by Western Blotting, specifically:
Group 1: histiocytic lymphoma U937 cells (1×10^6 cells/well) were inoculated into a 6-well culture plate for staying overnight, and 0 and 10 μmol/L of Mogroside I E1, Mogroside II A2 and mogrol were added respectively, and the culture was continued for 24 hours;
(§2) After the termination of the cell culture, the culture solution was removed, and the residue was washed with PBS (0.01 mol/L, pH 7.4), and then a cell lysis solution containing protease inhibitors was added at an amount of 50 μl/well, and the mixture was placed in an ice bath for lysis at 4° C. for 30 min and then centrifuged at 14000 r/min for 10 min, and then total proteins were obtained from the supernatant;
(§3) The protein concentrations were measured with bovine serum albumin (BSA) as the standard. 50 μg of the total proteins was separated by polyacrylamide gel electrophoresis with 12% […], electrophoretically transferred to a PVDF membrane (polyvinylidene fluoride membrane), and blocked for 1 h by 5% of skim milk (containing 0.1% of Tween 20), and then antibodies p-STAT3 (Tyr705) and p-Erk1/2 as well as β-actin were added, and the primary antibody was incubated at 4° C. overnight (β-actin was used as reference in loading amount); the membrane was washed for 3 times with TBS-T, 5 min each time; secondary antibody marked by horseradish peroxidase (HRP) was added for incubation at room temperature for 1 h, the membrane was washed for 3 times with a wash solution (TBS-T), 10 min each time, and then ECL was added for incubation in dark for 5 min, and subsequently, a fluorescence imaging analyzer was used for image development and scanning analysis, and the results of Western Blotting detection are shown in FIGS. 4 to 6.

[2] = tested on: phosphorylated ERK1/2 (P-ERK1/2); assay: Western Blotting of phosphorylated ERK1/2 in A875 cells; type: cell-based, human; settings: melanoma A875 cells, 10 μmol/L, 24 hours
Description: as §1
Group 2: human melanoma A875 cells (1×10^6 cells/well) were inoculated into a 6-well culture plate for staying overnight, and 0 and 10 μmol/L of Mogroside I E1, Mogroside II A2 and mogrol were added respectively, and the culture was continued for 24 hours;
as §2, §3

[3] = tested on: phosphorylated STAT3 (P-STAT3, Tyr705); assay: Western Blotting of phosphorylated STAT3 in K562 cells; type: cell-based, human; settings: leukemia cells K562, 10 μmol/L, 24 hours
Description: as §1
(§4) Group 3: leukemia cells K562 (1×10^6 cells/well) were inoculated into a 6-well culture plate for staying overnight, and 0 and 10 μmol/L of Mogroside I E1 Mogroside II A2 and mogrol were added respectively, and the culture was continued for 24 hours;
as §2, §3

[4] = tested on: phosphorylated ERK1/2 (P-ERK1/2); assay: Western Blotting of phosphorylated ERK1/2 in K562 cells; type: cell-based, human; settings: leukemia cells K562, 10 μmol/L, 24 hours
Description: as §1, §4, §2, §3

[5] = tested on: anti-apoptotic protein Bcl-2; assay: Western Blotting of Bcl-2 in U937 cells; type: cell-based; settings: 10 μmol/L, 24 h
Description: (§5) The STAT3 and ERK signal pathways can regulate cyclins and apoptosis genes, and in order to verify the effects of […] and mogrol, the expression status of downstream genes of STAT3 and ERK was detected, wherein the influences of the three mogrosides and analogs thereof, i.e. Mogrol I E1, Mogrol II A2 and mogrol, on Bcl-2 and P21 proteins in the histiocytic lymphoma U937 cells, human melanoma A875 cells and leukemia cells K562 were determined, respectively.
(§6) The regulation of Bcl-2 and P21 proteins by mogrosides and analog thereof to the was detected by Western Blotting, specifically: histiocytic lymphoma U937 cells, human melanoma A875 cells and leukemia cells K562 (1×10^6 cells/well) were inoculated into a 6-well culture plate overnight, and 0 and 10 μmol/L of the mogrosides and analogs thereof were added respectively, and kept cultured for 24 h. […]
(§7) The protein concentration was measured with bovine serum albumin (BSA) as the standard. 50 μg of the total proteins were separated by polyacrylamide gel electrophoresis with 12% SDS, and electrophoretically transferred to a PVDF membrane (polyvinylidene fluoride membrane), and blocked for 1 h by 5% of skim milk (containing 0.1% of Tween 20), and then antibodies P21, Bcl-2 and β-actin were added, wherein the primary antibody was incubated at 4° C. overnight (β-actin was used as reference loading amount); the membrane was washed for 3 times with TBS-T, 5 min each time; secondary antibody marked by horseradish peroxidase (HRP) was added for incubation at room temperature for 1 h, the membrane was washed with rinse solution (TBS-T) for 3 times, 10 min each time, and then ECL was added for incubation in dark for 5 min, and subsequently, a fluorescence imaging analyzer was used for image development and scanning analysis.

[6] = tested on: anti-apoptotic protein Bcl-2; assay: Western Blotting of Bcl-2 in A875 cells; type: cell-based; settings: human melanoma A875 cells, 10 μmol/L, 24 h
Description: as §5, §6, §7

[7] = tested on: cycle regulatory protein P21; assay: Western Blotting of P21 in K562 cells; type: cell-based, human; settings: leukemia cells K562, 10 μmol/L, 24 h
Description: as §5, §6, §7

leukemia cells K562 [8] = assay: Cell apoptosis, Annexin V-FITC/PI, flow cytometer; type: cell-based, human; settings: leukemia cells K562, 10 μmol/L, 24 h
Description: Lymphoma U937 cells, human melanoma A875 cells and leukemia cells K562 in logarithmic growth phase were selected, and after the respective culture with 0 and 10 μmol/L of the mogrosides and analogs thereof (i.e. Mogroside I E1, Mogroside II A2 and mogrol) for 24 h, cells were collected and washed twice with 200 μl of cold PBS, and then the cells were collected again; 100 μl of binding buffer was added for re-suspending the cells, and after the addition of 2 μl of Annexin V-FITC and well mixing, the resulting mixture was placed in dark at room temperature for 10 min, and then 5 μl of propidium iodide (PI) was added and then well mixed; the mixture was placed in dark at room temperature for 10 min, and detected by flow cytometer, and the results are shown in FIGS. 13-15.

leukemia cells K562 [9] = assay: Cell morphology, Hoechst 33258 staining, fluorescence microscope; type: cell-based, human; settings: leukemia cells K562, 10, 100 and 250 μmol/L, 24-hour culture
Description: Lymphoma U937 cells, human melanoma A875 cells and leukemia cells K562 in logarithmic growth phase were selected, and the concentrations of the cells were adjusted to 1×10^4 cells/mL, and the cells were transferred to a 6-well plate for culture, and after the 24-hour culture, drugs were added to achieve final concentrations of 0, 10, 100 and 250 μmol/L, wherein only whole medium was added to the negative control groups, while Mogroside II A2 was added to the positive control groups, after 24-hour culture, waste solution was removed, and fixing solution was added to each well for fixing for 25 min, and then the resulting mixture was washed twice, 3 min each time, and then Hoechst 33258 staining solution was added for staining in dark at room temperature for 30 min, and the cell morphology variation was observed using a fluorescence microscope.

C[C@H](CC[C@@H](O)C(C)(C)O)[C@H]1CC[C@@]2(C)[C@@H]3CC=C4[C@@H](CC[C@H](O)C4(C)C)[C@]3(C)[C@H](O)C[C@]12C [mogrol]
expression level of phosphorylated ERK1/2 (P-ERK1/2) [1]: significantly decreased | expression level of phosphorylated ERK1/2 (P-ERK1/2) [2]: significantly decreased | expression level of phosphorylated STAT3 (P-STAT3) [3]: significantly decreased | expression level of phosphorylated ERK1/2 (P-ERK1/2) [4]: significantly decreased | expression of anti-apoptotic protein Bcl-2 [5]: significantly down-regulated | expression of anti-apoptotic protein Bcl-2 [6]: significantly down-regulated | expression of cycle regulatory protein P21 [7]: significantly up-regulated | cell apoptosis (leukemia cells K562 [8]): induce the apoptosis | cell morphology variation (Hoechst 33258) (leukemia cells K562 [9]): identical to the results of Mogroside II A2
